Experimental data reported in patent US9505743B2, “Matrix metalloproteinase inhibitors and methods for the treatment of pain and other diseases” (AQUILUS PHARMACEUTICALS, INC., priority 2012, dated 2016).

How the values were obtained:
[1] = In-vitro rat microsomal stability; type: in vitro ADME; conditions: rat microsomes, compound 1 microMoles, at T = 60 minutes
Experimental: (§1) Human and Rat microsomal stability was determined for select compounds following the method of Houston (Houston, J B; Biochem. Pharmacol. 47, (1994), 1469). 1 μM concentration of compound and separate human and Rat microsomes (0.3 mg/mL, BD bioscience) were used in the in-vitro assay. To ensure proper energy supply for microsomal degradation of compound, an energy regenerating system comprised of 100 mM potassium phosphate, 2 mM NADPH, 3 mM MgCl2, pH=7.4 and the microsomal protein is added to each sample and the resulting suspension is then incubated in duplicate for 60 min at 37° C. in a rotary shaker. A control is run for each test agent in duplicate omitting NADPH to detect NADPH-free degradation. At T=0 and T=60 min., an aliquot is removed from each experimental and control reaction and then mixed with an equal volume of ice-cold Stop Solution (consisting of 0.3% acetic acid in acetonitrile containing haloperidol and diclofenac as internal standards). Stopped reactions are then incubated for at least ten minutes at −20° C., and an additional volume of water is then added. The samples are then centrifuged to remove precipitated protein, and the supernatants are then analyzed by LC-MS/MS to determine the percentage of compound remaining. The LC-MS/MS system used was an Agilent 6410 mass spectrometer coupled with an Agilent 1200 HPLC and a CTC PAL chilled autosampler, all controlled by MassHunter software (Agilent), or an ABI2000 mass spectrometer coupled with an Agilent 1100 HPLC and a CTC PAL chilled autosampler, all controlled by Analyst software (ABI). After separation on a C18 reverse phase HPLC column (Agilent, Waters, or equivalent) using an acetonitrile-water gradient system, peaks were analyzed by mass spectrometry (MS) using ESI ionization in MRM mode. Verapamil (high metabolized) and Warfarin (low metabolized) are used as controls to test the activity of the microsomal proteins. Table 15 and 16 below show the microsomal stability of select compounds in both human and Rat microsomes.

[2] = In-vitro human microsomal stability; type: in vitro ADME; conditions: human microsomes, compound 1 microMoles, at T = 60 minutes
Experimental: as §1

[3] = target: Catalytic domain of MMP-13 (human recombinant) (Homo sapiens (Human), UniProt P45452); assay: MMP-13 inhibition assay; type: biochemical
Experimental: Catalytic domain of MMP-13 (human recombinant) enzyme was then added to the compound solution. […] The time-dependent increase in fluorescence is measured at the 355 nm excitation and 405 nm emission by automatic plate multireader.

[4] = target: Catalytic domain of MMP-3 (human recombinant) (Homo sapiens (Human), UniProt P08254); assay: MMP-3 inhibition assay; type: biochemical; conditions: compound 10 microMolar; substrate McaRPKPVENvalWRK(Dnp)NH2 10 microMolar; <50% considered not active; read-out: Average Percent Inhibition MMP-3
Experimental: Catalytic domain of MMP-3 (human recombinant) enzyme was then added to the compound solution. […] A positive control was then run separately using the broad spectrum MMP inhibitor Tyr-hydroxamic acid as a control compound. […]

[5] = clinical; cited from earlier work
MMP-12 = MMP-12 (Homo sapiens (Human), UniProt P39900); assay: MMP-12 inhibition assay (electrophoretic mobility shift); type: biochemical; conditions: compound 10 microMolar; Fluorescein-labeled peptide 4 microMolar; <50% considered not active; read-out: Average Percent Inhibition MMP-12
Experimental: MMP-12 inhibitor activity was carried out by first separating the cleaved and uncleaved substrates by charge via electrophoretic mobility shift and then measuring the fluorescence of the separated products and comparing them with control reactions to determine inhibition of enzyme activity. The MMP-12 assay was then run using an assay buffer comprising of 100 mM HEPES, pH 7.5, 0.01% Brij-35, 1.5 mM NaCl and 2 mM CaCl2. […] The reaction was started by first adding the substrate and then incubating the reaction mixture for 1 hour at room temperature. The reaction was then terminated via the addition of a stop buffer consisting of 100 mM HEPES (pH 7.5), 30 mM EDTA, 0.015% Brij-35, and 5% DMSO. […]

[6] = In vivo rat pharmacokinetics, oral administration; conditions: plasma, PO 1.0 mg/kg, male Lewis rats, mean
Experimental: Six (6) male Lewis rats were used. Fasting was conducted at least 16 hours prior to dose administration. Food was returned at approximately 4 hours post dose. The animals were placed into 2 groups of 3 animals per group. The oral (PO) formulation for Groups 1 & 2 were prepared on the day of dosing at a target concentration of 0.5 mg/mL in 0.5% Methylcellulose (400 cps) to produce a white, homogeneous suspension. Dosing was performed as outlined in Table 24:
Each animal in Group 1 received prepared compound (56) by oral dose administration at a target dose level of 1.0 mg/kg and at a dose volume of 2 mL/kg. Each animal in Group 2 received prepared compound (45) by oral dose administration at a target dose level of 1.0 mg/kg and at a dose volume of 2 mL/kg (Table 24). Whole blood samples (0.250 mL; K2EDTA anticoagulant) were collected from each animal through a jugular vein catheter. Whole blood samples were collected from all animals pre-dose, and at 0.25, 0.5, 1, 2, 4, 8, 16, and 24 hours after dose administration. All blood samples were immediately placed on ice until processing. Whole blood samples were centrifuged at 2200×g for 10 minutes in a refrigerated centrifuge (5±3° C.) to isolate plasma. The plasma samples were transferred to individual polypropylene vials and immediately placed on dry ice before storage at nominally −20±5° C. The plasma samples some time later were then thawed and extracted and analyzed by high pressure liquid chromatography (HPLC) coupled to Mass Spectrometery (MS) (Table 25). Pharmacokinetic parameters (Table 25) were estimated using WinNonlin® pharmacokinetic software (Version No. 5.2.1) using a non-compartmental approach consistent with the PO route of administration.

[7] = target: Catalytic domain of MMP-1 (human recombinant) (Homo sapiens (Human), UniProt P03956); assay: MMP-1 inhibition assay; type: biochemical; conditions: compound 10 microMolar; substrate 10 microMolar; <50% considered not active; read-out: Average Percent Inhibition MMP-1
[8] = target: Catalytic domain of MMP-2 (human recombinant) (Homo sapiens (Human), UniProt P08253); assay: MMP-2 inhibition assay; conditions: read-out: Average Percent Inhibition MMP-2
Experimental: A concentration of MMP inhibitor of the present invention was tested (10 microMolar) in duplicate runs. Catalytic domain of MMP-2 (human recombinant) enzyme (10 nanoMolar) was added to the compound solution. The mixture of enzyme and compound in assay buffer was then thoroughly mixed and incubated for 60 minutes at 37° C. Upon the completion of incubation, the assay was then started by the addition of 10 μM of fluorescent substrate Mca-P-L-G-L-Dpa-A-R-NH2 (Kd ˜8 microMolar). The fluorescent product, McaPLG, was then measured at excitation of 355 nm and emission 405 nm by an automatic plate multireader at 37° C. […] Any inhibition <50% is considered not active under these assay conditions.

[9] = target: Catalytic domain of MMP-9 (human recombinant) (Homo sapiens (Human), UniProt P14780); assay: MMP-9 inhibition assay; type: biochemical; conditions: compound 10 microMolar; substrate DNP-Pro-Cha-Gly-Cys(Me)-His-Ala-Lys(N-Me-Abz)-NH2 10 microMolar; <50% considered not active; read-out: Average Percent Inhibition MMP-9
Catalytic domain of MMP-9 (human recombinant), sequence (P14780 107-444): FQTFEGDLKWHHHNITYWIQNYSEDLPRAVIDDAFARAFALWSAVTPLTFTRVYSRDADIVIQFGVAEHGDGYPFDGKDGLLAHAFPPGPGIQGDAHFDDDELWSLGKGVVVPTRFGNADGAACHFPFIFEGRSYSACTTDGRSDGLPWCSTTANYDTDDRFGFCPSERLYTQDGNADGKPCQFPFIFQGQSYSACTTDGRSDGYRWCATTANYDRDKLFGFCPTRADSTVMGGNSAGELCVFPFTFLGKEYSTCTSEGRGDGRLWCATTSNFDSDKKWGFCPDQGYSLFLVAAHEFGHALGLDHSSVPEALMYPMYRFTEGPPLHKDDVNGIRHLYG
Experimental: A concentration of MMP inhibitor of the present invention was tested (10 microMolar) in duplicate runs. Catalytic domain of MMP-9 (human recombinant) enzyme (10 nanoMolar) was added to the compound solution. The mixture of enzyme and compound in assay buffer was then thoroughly mixed and incubated for 60 minutes at 37° C. Upon the completion of incubation, the assay was started by the addition of 10 μM of fluorescent substrate DNP-Pro-Cha-Gly-Cys(Me)-His-Ala-Lys(N-Me-Abz)-NH2 [Cha=β-cyclohexylalanyl; Abz=2-aminobenzoyl(anthraniloyl)] (Kd ˜7 microMolar). […] Any inhibition <50% is considered not active under these assay conditions.

MMP-12, sequence (P39900 106-470, species assumed): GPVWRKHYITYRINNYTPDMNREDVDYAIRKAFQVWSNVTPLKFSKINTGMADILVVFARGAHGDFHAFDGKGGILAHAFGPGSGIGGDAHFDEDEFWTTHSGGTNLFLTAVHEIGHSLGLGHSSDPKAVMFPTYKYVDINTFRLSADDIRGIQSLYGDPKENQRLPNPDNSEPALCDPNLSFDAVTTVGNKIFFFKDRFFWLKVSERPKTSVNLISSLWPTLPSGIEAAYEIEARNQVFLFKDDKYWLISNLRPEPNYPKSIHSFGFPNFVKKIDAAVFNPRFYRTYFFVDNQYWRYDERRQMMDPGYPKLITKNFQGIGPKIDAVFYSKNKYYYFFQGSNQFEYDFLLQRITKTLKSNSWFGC
Catalytic domain of MMP-1 (human recombinant), sequence (P03956 98-276): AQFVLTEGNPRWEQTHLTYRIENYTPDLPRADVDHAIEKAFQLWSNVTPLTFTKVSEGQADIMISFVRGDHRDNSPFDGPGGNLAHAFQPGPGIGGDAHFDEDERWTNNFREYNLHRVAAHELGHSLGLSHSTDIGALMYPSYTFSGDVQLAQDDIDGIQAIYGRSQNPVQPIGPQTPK
Catalytic domain of MMP-3 (human recombinant), sequence (P08254 100-272): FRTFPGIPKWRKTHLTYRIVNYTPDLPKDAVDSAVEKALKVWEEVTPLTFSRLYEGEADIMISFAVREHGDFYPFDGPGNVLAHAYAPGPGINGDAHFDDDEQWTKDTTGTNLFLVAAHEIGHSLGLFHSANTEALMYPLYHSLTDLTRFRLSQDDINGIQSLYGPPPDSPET
Catalytic domain of MMP-2 (human recombinant), sequence (P08253 110-465): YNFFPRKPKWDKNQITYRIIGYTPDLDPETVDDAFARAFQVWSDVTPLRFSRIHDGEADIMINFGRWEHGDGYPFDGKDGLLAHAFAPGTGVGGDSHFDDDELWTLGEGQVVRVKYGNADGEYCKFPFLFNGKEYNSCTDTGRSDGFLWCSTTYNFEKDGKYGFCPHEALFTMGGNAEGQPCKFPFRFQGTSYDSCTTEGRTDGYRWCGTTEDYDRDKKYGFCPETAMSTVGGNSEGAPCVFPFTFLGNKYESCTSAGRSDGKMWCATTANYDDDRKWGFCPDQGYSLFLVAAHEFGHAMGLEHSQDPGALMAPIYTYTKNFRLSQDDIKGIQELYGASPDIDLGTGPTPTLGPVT

Cc1cc(CNC(=O)c2cc(C(=O)NCc3ccc(F)c(C)c3)ncn2)ccc1F [drawing 276]
% Mean Remaining Parent with NADPH (%) [1]: 0.6%

[2H]C([2H])(NC(=O)c1cc(C(=O)NCc2ccc(-c3nn[nH]n3)cc2)ncn1)c1cccc(OC)c1 [drawing 275]
% Mean Remaining Parent with NADPH (%) [1]: 57.4%

[2H]C([2H])(NC(=O)c1cc(C(=O)NC([2H])([2H])c2ccc(F)c(C)c2)ncn1)c1ccc(F)c(C)c1 [drawing 270]
Mean Remaining Parent with NADPH (%) [2]: 5.5%

[2H]C([2H])(NC(=O)c1cc(C(=O)NCc2cccc(OC)c2)ncn1)c1ccc(C(=O)O)cc1
IC50 [3]: < 100 nM

[2H]C([2H])(NC(=O)c1cc(C(=O)NCc2ccc(F)c(C)c2)ncn1)c1ccc(C(=O)O)cc1 [drawing 285]
IC50 [3]: < 100 nM

[2H]C([2H])(NC(=O)c1cc(C(=O)NCc2ccc(C(=O)O)cc2)ncn1)c1ccc(F)c(C)c1 [drawing 281]
inhibition at 10 µM [4]: 1.31%

[2H]C([2H])(NC(=O)c1cc(C(=O)NCc2ccc(F)c(C)c2)ncn1)c1ccc(C(=O)O)cc1 [drawing 273]
% Mean Remaining Parent with NADPH (%) [1]: 98.5%

Cc1cc(CNC(=O)c2cc(C(=O)NCc3ccc(C(=O)O)cc3)ncn2)ccc1F [drawing 264]
Mean Remaining Parent with NADPH (%) [2]: 103%

[2H]C([2H])(NC(=O)c1cc(C(=O)NCc2ccc(C(=O)O)cc2)ncn1)c1ccc(F)c(C)c1 [drawing 272]
% Mean Remaining Parent with NADPH (%) [1]: 87.4%

CNC(=O)[C@@H](NC(=O)[C@H](CC(C)C)[C@H](O)C(=O)NO)C(C)(C)C [Marimastat, marimastat]
Toxicities in humans [5]: time-dependent and dose-dependent musculoskeletal toxicities (arthralgia, myalgia, tendinitis)

[2H]C([2H])(NC(=O)c1cc(C(=O)NC([2H])([2H])c2ccc(F)c(C)c2)ncn1)c1ccc(F)c(C)c1 [drawing 277]
% Mean Remaining Parent with NADPH (%) [1]: 1.7%

[2H]C([2H])(NC(=O)c1cc(C(=O)NCc2ccc(C(=O)O)cc2)ncn1)c1ccc(F)c(C)c1 [drawing 284]
IC50 [3]: < 100 nM

Cc1cc(CNC(=O)c2cc(C(=O)NCc3ccc(C(=O)O)cc3)ncn2)ccc1F [drawing 271]
% Mean Remaining Parent with NADPH (%) [1]: 90.7%

[2H]C([2H])(NC(=O)c1cc(C(=O)NCc2ccc(F)c(C)c2)ncn1)c1ccc(C(=O)O)cc1 [drawing 265]
Mean Remaining Parent with NADPH (%) [2]: 104%

[2H]C([2H])(NC(=O)c1cc(C(=O)NCc2ccc(C(=O)O)cc2)ncn1)c1ccc(F)c(C)c1 [drawing 282]
inhibition at 10 µM (MMP-12): 0.68%

COc1cccc(CNC(=O)c2cc(C(=O)NCc3ccc(-c4nnn[nH]4)cc3)ncn2)c1 [drawing 274]
% Mean Remaining Parent with NADPH (%) [1]: 52.8%

[2H]C([2H])(NC(=O)c1cc(C(=O)NCc2ccc(F)c(C)c2)ncn1)c1ccc(C(=O)O)cc1 [Compound 56, 4-(Dideutero-{[6-(4-fluoro-3-methyl-benzylcarbamoyl)-pyrimidine-4-carbonyl]-amino}-methyl)-benzoic acid]
AUC(0-inf) [6]: 705 ng·h/mL
AUC(0-t) [6]: 697 ng·h/mL
Cmax [6]: 362 ng/mL
Tmax [6]: 45 min
half-life [6]: 73.2 min

COc1cccc(CNC(=O)c2cc(C(=O)NCc3ccc(-c4nnn[nH]4)cc3)ncn2)c1 [drawing 267]
Mean Remaining Parent with NADPH (%) [2]: 88.1%

[2H]C([2H])(NC(=O)c1cc(C(=O)NCc2ccc(C(=O)O)cc2)ncn1)c1ccc(F)c(C)c1 [drawing 266]
Mean Remaining Parent with NADPH (%) [2]: 95.6%

[2H]C([2H])(NC(=O)c1cc(C(=O)NCc2ccc(-c3nn[nH]n3)cc2)ncn1)c1cccc(OC)c1 [drawing 283]
inhibition at 1 µM ([3]; read-out: Average Percent Inhibition MMP-13): 92%

[2H]C([2H])(NC(=O)c1cc(C(=O)NCc2ccc(C(=O)O)cc2)ncn1)c1ccc(F)c(C)c1 [drawing 280]
inhibition at 10 µM [7]: 1.83%

[2H]C([2H])(NC(=O)c1cc(C(=O)NCc2ccc(C(=O)O)cc2)ncn1)c1ccc(F)c(C)c1 [drawing 278]
inhibition at 10 µM [8]: 8.19%

[2H]C([2H])(NC(=O)c1cc(C(=O)NCc2ccc(-c3nn[nH]n3)cc2)ncn1)c1cccc(OC)c1 [drawing 268]
Mean Remaining Parent with NADPH (%) [2]: 95.3%

Cc1cc(CNC(=O)c2cc(C(=O)NCc3ccc(C(=O)O)cc3)ncn2)ccc1F [Compound 45, 4-({[6-(4-Fluoro-3-methyl-benzylcarbamoyl)-pyrimidine-4-carbonyl]-amino}-methyl)-benzoic acid]
AUC(0-inf) [6]: 428 ng·h/mL
AUC(0-t) [6]: 414 ng·h/mL
Cmax [6]: 310 ng/mL
Tmax [6]: 24.6 min
half-life [6]: 110 min

[2H]C([2H])(NC(=O)c1cc(C(=O)NCc2ccc(C(=O)O)cc2)ncn1)c1ccc(F)c(C)c1 [drawing 279]
inhibition at 10 µM [9]: 2.39%

Cc1cc(CNC(=O)c2cc(C(=O)NCc3ccc(F)c(C)c3)ncn2)ccc1F [drawing 269]
Mean Remaining Parent with NADPH (%) [2]: 5.3%
